{"source": "patent US20150087045A1", "about": "“CRYSTAL STRUCTURE OF HCV […] AND METHODS OF USE” (GILEAD P[…], priority 2012, published 2015)", "key": {"[1]": {"assay": "Thermofluor analysis: melting temperature of polymerase constructs", "format": "physicochemical", "conditions": "polymerase itself", "protocol": "Thermofluor analysis of HCV polymerases 1bWT, 1bΔ8, 2aWT, and 2aΔ8 was performed as previously described (36, 37) in the absence and presence of symmetrical primer-template pairs or fused hairpin primer-template RNA as described in Example 2."}, "[2]": {"system": "genotype 1b (−) IRES RNA template", "assay": "De novo RNA synthesis activity of HCV NS5B polymerase constructs", "format": "biochemical, hepatitis C virus", "conditions": "2a Δ8 with Gly-Gly linker compared to wild-type 2a", "protocol": "HCV activity assays were performed in a 200 μL mixture containing 1 μM of the four natural ribonucleotides, [α-^32P]UTP, 20 ng/μL of genotype 1b (−) IRES RNA template, 1 unit/μL of SUPERase.In (Ambion, Austin, Tex.), 40 ng/μL of NS5B, 5 mM MgCl2, and 2 mM DTT in 50 mM HEPES buffer (pH 7.5). The reaction was incubated at 27° C. and 20 μL aliquots were taken at the desired time points and quenched by mixing in 80 μL of stop solution (12.5 mM EDTA, 2.25 M NaCl, and 225 mM sodium citrate)."}, "HCV polymerase 1b S282T [3]": {"system": "HCV polymerase 1b S282T", "assay": "Inhibition assay (chain termination) with construct 1b S282T", "format": "biochemical, hepatitis C virus genotype 1b BK isolate", "conditions": "upon introduction of S282T into 1b WT"}, "HCV polymerase 1b S282T [4]": {"biological_target": "T1, HCV polymerase 1b S282T (Hepatitis C virus genotype 1b, UniProt P26663, E2505Q/E2506Q/K2533R/L2466Q/R2963Q/S2701T)", "T1 construct": "1b S282T; made in house; host or cells: E. coli Rosetta DE3", "assay": "Inhibition assay (chain termination) with construct 1b S282T", "format": "biochemical, hepatitis C virus genotype 1b BK isolate"}, "[5]": {"biological_target": "T2, HCV polymerase 1b Δ8 S282T (Hepatitis C virus genotype 1b, UniProt P26663, DEL2863-2870/E2505Q/E2506Q/K2533R/L2466Q/R2963Q/S2701T/S2872G/Y2871G)", "T2 construct": "1bΔ8 S282T; made in house; host or cells: E. coli Rosetta DE3", "assay": "Inhibition assay (chain termination) with construct 1b Δ8 S282T", "format": "biochemical, hepatitis C virus genotype 1b BK isolate"}, "[6]": {"system": "HCV polymerase 1b Δ8 S282T", "assay": "Inhibition assay (chain termination) with construct 1b Δ8 S282T", "format": "biochemical, hepatitis C virus genotype 1b BK isolate", "conditions": "upon introduction of S282T into 1b Δ8"}, "[7]": {"biological_target": "T3, HCV NS5B polymerase 1b Δ8 (Hepatitis C virus genotype 1b, UniProt P26663, DEL2863-2870/E2505Q/E2506Q/K2533R/L2466Q/R2963Q/S2872G/Y2871G)", "T3 construct": "1bΔ8; made in house; host or cells: E. coli Rosetta DE3", "assay": "Inhibition assay (chain termination) with construct 1b Δ8", "format": "biochemical, hepatitis C virus genotype 1b BK isolate", "conditions": "for IC50: one value or range given for both 1b WT and 1b Δ8"}, "[8]": {"biological_target": "T4, HCV NS5B polymerase 1b WT (Hepatitis C virus genotype 1b, UniProt P26663, E2505Q/E2506Q/K2533R/L2466Q/R2963Q)", "T4 construct": "1b WT; made in house; host or cells: E. coli Rosetta DE3", "assay": "Inhibition assay (chain termination) with construct 1b WT", "format": "biochemical, hepatitis C virus genotype 1b BK isolate", "conditions": "one value or range given for both 1b WT and 1b Δ8", "protocol": "For constructs 1bWT and 1bΔ8, inhibition assays were performed in a 120 μL mixture containing 5 μM of the four natural ribonucleotides, [α-^32P]UTP, 20 ng/μL of genotype 1b (−) IRES RNA template, 1 unit/μL of SUPERase.In (Ambion, Austin, Tex.), 40 ng/μL of NS5B, 5 mM MgCl2, and 2 mM DTT in 50 mM HEPES buffer (pH 7.5). The reaction was incubated at 27° C. and a 20 μL aliquot was taken at 0, 30, 60, 90, and 120 minute time points and quenched by mixing with 80 μL of stop solution (12.5 mM EDTA, 2.25 M NaCl, and 225 mM sodium citrate). The radioactive RNA products were separated from unreacted substrates using a Hybond N+ membrane (GE Healthcare) as described previously (FIG. 2). The products were visualized and quantified using a phosphorimager. The reaction rates and IC 50 values were calculated using GraphFit."}, "[9]": {"biological_target": "T5, HCV NS5B polymerase 2a WT (Hepatitis C virus genotype 2a, UniProt Q99IB8, E2528Q/E2529Q)", "T5 construct": "2a WT; made in house; host or cells: E. coli Rosetta DE3", "assay": "Inhibition assay (chain termination) with construct 2a WT", "format": "biochemical, hepatitis C virus genotype 2a JFH1 isolate", "conditions": "60 minutes incubation, 27° C.", "protocol": "(§1) For constructs 2aWT and 2aΔ8, inhibition assays were performed in a 20 μL mixture containing varying concentrations of PSI-352666 or 2′-C-MeGTP, 5 μM of the four natural ribonucleotides, [α-^32P]UTP, 20 ng/μL of genotype 1b (−) IRES RNA template, 1 unit/μL of SUPERase.In (Ambion, Austin, Tex.), 40 ng/μL of NS5B, 5 mM MgCl2, and 2 mM DTT in 50 mM HEPES buffer (pH 7.5).\n(§2) The reaction was incubated at 27° C. and quenched by adding 80 μL of stop solution after 60 minutes incubation with 2aWT or 15 minutes incubation with 2aΔ8. The radioactive RNA products were separated from unreacted substrates using a Hybond N+ membrane (GE Healthcare) as described previously^28. The products were visualized and quantified using a phosphorimager. The reaction rates and the IC50 values were calculated using GraphFit (Erithacus Software, Horley, Surrey, UK)."}, "[10]": {"biological_target": "T6, HCV NS5B polymerase 2a Δ8 (Hepatitis C virus genotype 2a, UniProt Q99IB8, DEL2886-2893/E2528Q/E2529Q/S2895G/Y2894G)", "T6 construct": "2aΔ8; made in house; host or cells: E. coli Rosetta DE3", "assay": "Inhibition assay (chain termination) with construct 2a Δ8", "format": "biochemical, hepatitis C virus genotype 2a JFH1 isolate", "conditions": "15 minutes incubation, 27° C.", "protocol": "as §1, §2"}}, "note": "Values joined by “and” are separate entries in the source; they are usually repeats but may differ in a detail not shown here. Equal entries are not always repeated."}
{"compound": "2a WT: HCV polymerase genotype 2a JFH-1 construct, SEQ ID NO:3, C-terminal 21 amino acids replaced by hexahistidine tag, E86Q and E87Q", "values": [{"measurement": "melting temperature (Tm)", "setting": "[1]", "value": "~41", "unit": "°C"}]}
{"compound": "2a Δ8: 2a WT with the β-hairpin replaced by a Gly-Gly linker, SEQ ID NO:8", "values": [{"measurement": "melting temperature (Tm)", "setting": "[1]", "value": "~35", "unit": "°C"}, {"measurement": "de novo RNA synthesis activity compared to 2a WT", "setting": "[2]", "value": "> 100", "unit": "fold"}]}
{"compound": "C[C@@]1(O)[C@H](O)[C@@H](COP(=O)(O)OP(=O)(O)OP(=O)(O)O)O[C@H]1n1cnc2c(=O)[nH]c(N)nc21", "note": "[2′-C-MeGTP]", "values": [{"measurement": "increase in IC50", "setting": "HCV polymerase 1b S282T [3]", "value": "> 10", "unit": "fold"}, {"measurement": "IC50", "setting": "HCV polymerase 1b S282T [4]", "value": "> 100", "unit": "µM"}, {"measurement": "IC50", "setting": "[5]", "value": "> 100", "unit": "µM"}, {"measurement": "increase in IC50", "setting": "[6]", "value": "> 10", "unit": "fold"}, {"measurement": "IC50", "setting": "[7]", "value": "7 to 13", "unit": "µM"}, {"measurement": "IC50", "setting": "[8]", "value": "7 to 13", "unit": "µM"}]}
{"compound": "C[C@@]1(F)[C@H](O)[C@@H](COP(=O)(O)OP(=O)(O)OP(=O)(O)O)O[C@H]1n1cnc2c(=O)[nH]c(N)nc21", "note": "[PSI-352666]", "values": [{"measurement": "IC50", "setting": "[9]", "value": "6.05 ± 0.82", "unit": "µM"}, {"measurement": "increase in IC50", "setting": "HCV polymerase 1b S282T [3]", "value": "~2.5", "unit": "fold"}, {"measurement": "IC50", "setting": "HCV polymerase 1b S282T [4]", "value": "9 to 14", "unit": "µM"}, {"measurement": "IC50", "setting": "[10]", "value": "6 µM and 6.41 µM"}, {"measurement": "IC50", "setting": "[5]", "value": "9 to 14", "unit": "µM"}, {"measurement": "increase in IC50", "setting": "[6]", "value": "~2.5", "unit": "fold"}, {"measurement": "chain termination: elongation of the terminated product (*GGCX)", "setting": "[7]; in the presence of the next correct incoming nucleotide (ATP), 0-60 min", "value": "not further elongated"}, {"measurement": "IC50", "setting": "[7]", "value": 4, "unit": "µM"}, {"measurement": "IC50", "setting": "[8]", "value": 4, "unit": "µM"}]}
